System: HCV 1b-377-neo replicon cells
Test: HCV replicon assay, HCV 1b-377-neo replicon cells (1b FRET)
Type: cell-based, Hepatitis C virus genotype 1b
Conditions: Hepatitis C virus, HCV 1b-377-neo replicon cells; HCV 1b genotype; read-out: EC50 range against HCV 1b (Table 2, Range)
In short: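 Compounds tested in HCV genotype 1b-377-neo replicon cells with a FRET read-out. Cells resistant to a reference NS5A inhibitor through a Y2065H NS5A mutation were run alongside wild-type cells.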

Compared with `COC(=O)N[C@@H](C)C(=O)N1CCC[C@H]1c1ncc(-c2ccc(-c3ccc(-c4cnc([C@@H]5CCCN5C(=O)[C@@H](NC(=O)OC)C(C)C)[nH]4)c(F)c3)cc2F)[nH]1` [Example D57, methyl ((1S)-1-(((2S)-2-(5-(3,3′-difluoro-4′-(2-((2S)-1-(N-(methoxycarbonyl)-L-alanyl)-2-pyrrolidinyl)-1H-imidazol-5-yl)-4-biphenylyl)-1H-imidazol-2-yl)-1-pyrrolidinyl)carbonyl)-2-methylpropyl) carbamate], `COC(=O)N[C@H](C(=O)N1CCC[C@H]1c1ncc(-c2ccc(-c3ccc(-c4cnc([C@@H]5CCCN5C(=O)[C@@H](NC5=NCCN5)C(C)C)[nH]4)cc3)cc2)[nH]1)C(C)C` [cj-11e, methyl ((1S)-1-(((2S)-2-(5-(4′-(2-((2S)-1-(N-(4,5-dihydro-1H-imidazol-2-yl)-L-valyl)-2-pyrrolidinyl)-1H-imidazol-5-yl)-4-biphenylyl)-1H-imidazol-2-yl)-1-pyrrolidinyl)carbonyl)-2-methylpropyl)carbamate] is higher in EC50: 0.001 to 0.999 nM for the first, 1000 to 10000 nM for the second. The first is the more potent here.

`CN(C)[C@@H](C(=O)N1CCC[C@H]1c1ncc(-c2ccc(-c3ccc(-c4cnc([C@@H]5CCCN5C(=O)[C@@H](c5ccccc5)N(C)C)[nH]4)nc3)cc2)[nH]1)c1ccccc1` [Example 146, (1R)-2-((2S)-2-(5-(5-(4-(2-((2S)-1-((2R)-2-(dimethylamino)-2-phenylacetyl)-2-pyrrolidinyl)-1H-imidazol-5-yl)phenyl)-2-pyridinyl)-1H-imidazol-2-yl)-1-pyrrolidinyl)-N,N-dimethyl-2-oxo-1-phenylethanamine] and `C[C@@H](c1ncc(-c2ccc(-c3ccc(-c4cnc([C@@H]5CCCN5C(=O)[C@@H](c5ccccc5)N(C)C)[nH]4)cc3)cc2)[nH]1)N(C)C(=O)[C@@H](c1ccccc1)N(C)C` [Example 24-18-5, (2R)-2-(dimethylamino)-N-((1S)-1-(5-(4′-(2-((2S)-1-((2R)-2-(dimethylamino)-2-phenylacetyl)-2-pyrrolidinyl)-1H-imidazol-5-yl)-4-biphenylyl)-1H-imidazol-2-yl)ethyl)-N-methyl-2-phenylacetamide] fall in the same range of EC50: 0.001 to 0.999 nM for the first, 0.001 to 0.999 nM for the second.

`CC[C@@H](O)C(=O)N1CCC[C@H]1c1ncc(-c2ccc(-c3ccc(-c4cnc([C@@H]5CCCN5C(=O)[C@H](NC(=O)OC)c5ccccc5)[nH]4)cc3)cc2)[nH]1` [Example 56, methyl ((1R)-2-((2S)-2-(5-(4′-(2-((2S)-1-((2R)-2-hydroxybutanoyl)-2-pyrrolidinyl)-1H-imidazol-5-yl)-4-biphenylyl)-1H-imidazol-2-yl)-1-pyrrolidinyl)-2-oxo-1-phenylethyl)carbamate] and `COC(=O)N[C@@H](C(=O)N1CCC[C@H]1c1ncc(-c2ccc(-c3ccc(-c4cnc([C@@H]5CCCN5C(=O)C(c5ccccc5)N5CCC(O)CC5)[nH]4)cc3)cc2)[nH]1)c1ccccc1` (stereo partly drawn) [Example 64, methyl ((1R)-2-((2S)-2-(5-(4′-(2-((2S)-1-((4-hydroxy-1-piperidinyl)(phenyl)acetyl)-2-pyrrolidinyl)-1H-imidazol-5-yl)-4-biphenylyl)-1H-imidazol-2-yl)-1-pyrrolidinyl)-2-oxo-1-phenylethyl)carbamate] fall in the same range of EC50: 0.001 to 0.999 nM for the first, 0.001 to 0.999 nM for the second.

Compared with `COC(=O)N[C@H](CCc1ccccc1)CC(=O)N1CCC[C@H]1c1ncc(-c2ccc(-c3ccc(-c4cnc([C@@H]5CCCN5C(=O)C[C@@H](CCc5ccccc5)NC(=O)OC)[nH]4)cc3)cc2)[nH]1` [cj-135, dimethyl (4,4′-biphenyldiylbis(1H-imidazole-5,2-diyl(2S)-2,1-pyrrolidinediyl((3R)-1-oxo-5-phenyl-1,3-pentanediyl)))biscarbamate], `COC(=O)N[C@@H](C)C(=O)N1CCC[C@H]1c1ncc(-c2ccc(-c3ccc(-c4cnc([C@@H]5CCCN5C(=O)[C@H](Cc5c[nH]c6ccccc56)NC(=O)OC)[nH]4)cc3)cc2)[nH]1` [cj-102, methyl ((1S)-2-((2S)-2-(5-(4′-(2-((2S)-1-((2S)-3-(1H-indol-3-yl)-2-((methoxycarbonyl)amino)propanoyl)-2-pyrrolidinyl)-1H-imidazol-5-yl)-4-biphenylyl)-1H-imidazol-2-yl)-1-pyrrolidinyl)-1-methyl-2-oxoethyl)carbamate] is lower in EC50: 1 to 99 nM for the first, 0.001 to 0.999 nM for the second.

— patent US8574563B2 (Bristol-Myers Squibb Company, priority 2006, dated 2013)
